Assay results from US20030103945A1, “Methods and compositions for stimulating axon regeneration and preventing neuronal cell degeneration” (priority 2001, published 2003).
Where a SMILES comes first, the peptide text is derived from it. The star is where a group is joined. Cbz = O=C(OCc1ccccc1)*; CH2F = FC*

What was measured:
RGCs = assay: Dissociated retinal cell culture, RGC survival and neurite outgrowth; type: cell-based, mouse; design: RGC death in dissociated retinal cell culture: dose or concentration left out as unconfirmed
Excerpt: Whether these two activities of neurons, survival and axonal growth, can be separated in vitro was next examined. The anti-apoptotic function of bcl-2 is well established (Davies, A. A TINS 18, 355-358 (1995); Korsmeyer, S. J. hnmunol. Today 13, 285-288 (1992); Farlie, et al. Proc. Natl. Acad Sci. USA 92, 4397-4401 (1995); Bonfanti, L. et al. J Neurosci. 16, 4186-4194 (1996)). Therefore, it is especially important to examine whether its growth-promoting activity is simply an indirect consequence of supporting cell survival. […] Note that this occurs in the absence of any neurotrophic factors added to the culture medium. The effect of the ICE inhibitor was also tested in the explant coculture system with tissue prepared from wild-type P2 mice. […] While treatment with ZVAD was sufficient to prevent death of RGCs, it is not sufficient to promote axonal growth. […]
The brain sections were visualized with a Nikon microscope and site of the lesion was reconstructed in 3 dimensions with MIT Neurotrace computer software. […] Cell death was detected by staining with the fluorescent dye, SYTOX green fluorescent dead cell stain (Molecular Probes). […]

retinal explants = assay: Retinotectal explant coculture, cell death (SYTOX green) and retinal axon growth; type: cell-based, mouse; design: protection of cells from death compared with bcl-2 transgenic mouse: dose or concentration left out as unconfirmed; conditions: wild-type P2 mice
Excerpt: Whether these two activities of neurons, survival and axonal growth, can be separated in vitro was next examined. The anti-apoptotic function of bcl-2 is well established (Davies, A. A TINS 18, 355-358 (1995); Korsmeyer, S. J. hnmunol. Today 13, 285-288 (1992); Farlie, et al. Proc. Natl. Acad Sci. USA 92, 4397-4401 (1995); Bonfanti, L. et al. J Neurosci. 16, 4186-4194 (1996)). Therefore, it is especially important to examine whether its growth-promoting activity is simply an indirect consequence of supporting cell survival. […] Note that this occurs in the absence of any neurotrophic factors added to the culture medium. The effect of the ICE inhibitor was also tested in the explant coculture system with tissue prepared from wild-type P2 mice. […] While treatment with ZVAD was sufficient to prevent death of RGCs, it is not sufficient to promote axonal growth. […] Evidence from other investigators (when viewed in conjunction with that provided herein) also support the theme that cell survival and axonal growth are two independent activities of neurons (Sagot, Y., Tan, S. A-Hammang, J. P., Aebischer, P. & Kato, A. C. J Neurosci. 16, 2335-2341 (1996); Dusart, 1. & Sotelo, C. J Comp. Neurol. 347, 211-232 (1994)). The regenerative failure of retinal axons and the decrease of bcl-2 levels in RGCs occur (E 18) before programmed cell death starts (P 1 P5) (Young, R. W. J Comp. Neurol. 229, 362-373 (1984)). […] These all support the position that bcl-2 promotes axonal growth through a mechanism independent of its anti apoptotic activity.
Brains were dissected into ice-cold Gey's balanced salt solution enriched with glucose. […] Retinal explants were abutted against tectal slices. Tissues were placed on the microporous membrane of Millicell wells (Millipore) and maintained in NeuralBasal medium supplemented with B27 (GIBCO Inc., New York) at 370C for five days. To exclude the possibility that tectal tissues from mutant mice may affect axonal growth of RGCs, a series of parallel experiments were performed in which one retinal explant of each mouse was confronted with the tecturn from the same mouse, while the second retinal explant was placed against the tecturn from another mouse. With this arrangement, retinal explants from each animal had the possibility of being cocultured with the tecturn from a wild-type, heterozygous, or homozygous animal. The number of regenerating axons was sampled by applying the lipophilic carbocyanine fluorescent label, DiI, in crystals to fixed retinal explants. The cocultures were stored in fixative for two-four weeks to allow diffusion of the dye, and labeled retinal axons were viewed with a fluorescence microscope (Nikon).
The brain sections were visualized with a Nikon microscope and site of the lesion was reconstructed in 3 dimensions with MIT Neurotrace computer software. Primary cultures of dissociated retinal cells were prepared from […] wild type or transgenic animals. RGCs were prelabeled by injecting DiI solution (25% in Dimethyl Formamide) into the tectal region bilaterally in PO pups. Cells were plated in 24-cell wells treated with poly-L-lysine (10 μg/ml, 4° C. overnight) and coated with Human Merosin ([…], r.t., 2 hr)(Meyer-Franke, A. and Barres, B. A. Neuron 15, 805-819 (1995)). Cultures were maintained for 2 to 3 days in NeuralBasal medium supplemented with B27. […] Cell death was detected by staining with the fluorescent dye, SYTOX green fluorescent dead cell stain (Molecular Probes). […]

[1] = increasing concentration of ZVAD (50, 100, 200)

CC(C)[C@H](NC(=O)OCc1ccccc1)C(=O)N[C@@H](C)C(=O)N[C@@H](CC(=O)O)C(=O)CF [ZVAD, Z-Val-Ala-Asp-CH2F] (Cbz-Val-Ala-Asp-CH2F)
RGC death in dissociated retinal cell culture (RGCs; 2 days in culture, retinae of P2 pups): effectively reduced RGC death | morphology and neurites of labeled RGCs from wild-type animals (RGCs; ZVAD-treated dissociated culture, no neurotrophic factors added): round and devoid of neurites | number of axons that invaded tectal slices, wild-type cultures versus bcl-2 transgenic mice (retinal explants; 200 mM ZVAD): 10 fold less | number of dying cells in retinal explants with increasing concentration (retinal explants; [1]): decreased | number of growing axons with increasing concentration (retinal explants; [1]): did not change significantly | protection of cells from death compared with bcl-2 transgenic mouse (retinal explants): protected cells from death almost as well as bcl-2 in the transgenic mouse | extent of cell death in retinal explants (retinal explants; explant coculture): reduced the extent of cell death in retinal explants
